# Key:
# Type in all cases: in vivo
# [1] = test system: windgrass (Apera spica-venti); assay: Test B postemergence plant response; conditions: for Plant response rating, Windgrass: Postemergence
# Excerpt: (§1) At the same time, plants selected from these crop and weed species and also winter barley (Hordeum vulgare), canarygrass (Phalaris minor), chickweed (Stellaria media) and windgrass (Apera spica-venti) were planted in pots containing Redi-Earth® planting medium (Scotts Company, 14111 Scottslawn Road, Marysville, Ohio 43041) comprising spaghnum peat moss, vermiculite, wetting agent and starter nutrients and treated with postemergence applications of some of the test chemicals formulated in the same manner. Plants ranged in height from 2 to 18 cm (1- to 4-leaf stage) for postemergence treatments.
# (§2) Treated plants and controls were maintained in a greenhouse for 13 to 15 days, after which time all treated plants were visually evaluated and compared to controls. Plant response ratings, summarized in Table B, are based on a scale of 0 to 100 where 0 is no effect and 100 is complete control. A dash (-) response means no test result.
# [2] = test system: winter barley (Hordeum vulgare); assay: Test B postemergence plant response; conditions: for Barley plant response rating (0 to 100 scale): postemergence, 0 is no effect, 100 is complete control; for Plant response rating, Barley: Postemergence
# Excerpt: as §1, §2
# [3] = test system: chickweed (Stellaria media); assay: Test B postemergence plant response; conditions: for Plant response rating, Chickweed: Postemergence
# Excerpt: as §1, §2
# [4] = test system: canarygrass (Phalaris minor); assay: Test B postemergence plant response; conditions: for Plant response rating, Canarygrass: Postemergence
# Excerpt: as §1, §2
# [5] = test system: ragweed (common ragweed, Ambrosia elatior); assay: Test B pre-/postemergence plant response; conditions: for Plant response rating, Ragweed: Postemergence
# Method in brief: (§3)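 Each species received compound formulated in non-phytotoxic solvent with surfactant, either at planting into a loam and sand blend or as a foliar spray once plants reached 2 to 18 cm in peat-based medium. Plants stayed in the greenhouse 13 to 15 days before visual evaluation against controls, scored 0 (no effect) to 100 (complete control).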
# [6] = test system: Italian ryegrass (Lolium multiflorum); assay: Test B pre-/postemergence plant response; conditions: for Plant response rating, Ryegrass, Italian: Postemergence
# Method in brief: as §3
# [7] = test system: giant foxtail (Setaria faberii); assay: Test B pre-/postemergence plant response; conditions: for Plant response rating, Foxtail, Giant: Postemergence
# Method in brief: as §3
# rice (Oryza sativa) = assay: Test B flooded paddy test; conditions: for Plant response rating, Rice: Flood (flooded paddy test), 13 to 15 days
# Method in brief: (§4)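 Seedlings reaching 2 leaves are flooded 3 cm deep; test material is delivered to that water, which stays at the same depth. Plants remain in a greenhouse 13–15 days and are then scored by eye versus controls from 0 to 100.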
# [8] = test system: umbrella sedge (Cyperus difformis); assay: Test B flooded paddy test; conditions: for Plant response rating, Sedge, Umbrella: Flood (flooded paddy test), 13 to 15 days
# Method in brief: as §4
# [9] = test system: ducksalad (Heteranthera limosa); assay: Test B flooded paddy test; conditions: for Plant response rating, Ducksalad: Flood (flooded paddy test), 13 to 15 days
# Method in brief: as §4
# [10] = test system: barnyardgrass (Echinochloa crus-galli); assay: Test B flooded paddy test; conditions: for Plant response rating, Barnyardgrass: Flood (flooded paddy test), 13 to 15 days
# Method in brief: as §4
# [11] = 62 g ai/ha, postemergence, 0 is no effect, 100 is complete control, 13 to 15 days
# [12] = 31 g ai/ha, 0 to 100 scale (0 no effect, 100 complete control)
# [13] = 125 g ai/ha, scale 0 to 100 (0 no effect, 100 complete control)
# [14] = 250 g ai/ha, scale 0 to 100 (0 no effect, 100 complete control), 13 to 15 days
# [15] = 250 g ai/ha, flooded paddy test, visual rating on 0 to 100 scale (0 no effect, 100 complete control) after 13 to 15 days
# [16] = 62 g ai/ha, scale of 0 to 100 where 0 is no effect and 100 is complete control
# [17] = 125 g ai/ha, scale 0 to 100, 0 is no effect, 100 is complete control
# [18] = Flood, 31 g ai/ha, scale 0 to 100 (0 no effect, 100 complete control)
# [19] = 125 g ai/ha, scale 0 (no effect) to 100 (complete control), 13 to 15 days
# [20] = 62 g ai/ha, scale 0 to 100 (0 no effect, 100 complete control)
structure (smiles),measurement,setting,value
O=C1CCCC(O)=C1C(=O)c1cnc(-c2ccccc2)n(C2CCOCC2)c1=O [Compound 129],Windgrass plant response rating (0 to 100 scale),[1]; [11],60
same,"Plant response rating, Windgrass",[1]; [12],45
same,"Plant response rating, Windgrass",[1]; [13],80
same,"Plant response rating, Windgrass",[1]; [14],85
same,Barley plant response rating (0 to 100 scale),"[2]; 62 g ai/ha, 13 to 15 days",0
same,"Plant response rating, Barley",[2]; [12],0
same,"Plant response rating, Barley",[2]; [13],0
same,"Plant response rating, Barley",[2]; [14],0
same,Chickweed plant response rating (0 to 100 scale),[3]; [11],85
same,"Plant response rating, Chickweed",[3]; [12],85
same,"Plant response rating, Chickweed",[3]; [13],90
same,"Plant response rating, Chickweed",[3]; [14],100
same,Canarygrass plant response rating (0 to 100 scale),[4]; [11],0
same,"Plant response rating, Canarygrass",[4]; [12],0
same,"Plant response rating, Canarygrass",[4]; [13],0
same,"Plant response rating, Canarygrass",[4]; [14],0
same,Ragweed plant response rating (0 to 100 scale),[5]; [11],95
same,"Plant response rating, Ragweed",[5]; [12],90
same,"Plant response rating, Ragweed",[5]; [13],95
same,"Plant response rating, Ragweed",[5]; [14],95
same,"Ryegrass, Italian plant response rating (0 to 100 scale)",[6]; [11],0
same,"Plant response rating, Ryegrass, Italian",[6]; [12],0
same,"Plant response rating, Ryegrass, Italian",[6]; [13],0
same,"Plant response rating, Ryegrass, Italian",[6]; [14],0
same,"Foxtail, Giant plant response rating (0 to 100 scale)",[7]; [11],85
same,"Plant response rating, Foxtail, Giant",[7]; [12],70
same,"Plant response rating, Foxtail, Giant",[7]; [13],90
same,"Plant response rating, Foxtail, Giant",[7]; [14],98
same,"Plant response rating, Flood, Rice",rice (Oryza sativa); [15],30
same,"Plant response rating, Rice",rice (Oryza sativa); [16],0
same,"Plant response rating, Rice",rice (Oryza sativa); [17],0
same,Rice plant response rating,rice (Oryza sativa); [18],0
same,"Plant response rating, Flood, Sedge, Umbrella",[8]; [15],60
same,"Plant response rating, Sedge, Umbrella",[8]; [16],0
same,"Plant response rating, Sedge, Umbrella",[8]; [17],60
same,"Sedge, Umbrella plant response rating",[8]; [18],0
same,"Plant response rating, Flood, Ducksalad",[9]; [15],100
same,"Plant response rating, Ducksalad",[9]; [16],90
same,"Plant response rating, Ducksalad",[9]; [17],90
same,Ducksalad plant response rating,[9]; [18],0
same,"Plant response rating, Flood, Barnyardgrass",[10]; [15],60
same,"Plant response rating, Barnyardgrass",[10]; [16],0
same,"Plant response rating, Barnyardgrass",[10]; [17],10
same,Barnyardgrass plant response rating,[10]; [18],0
CCCCn1c(-c2ccccc2)ncc(C(=O)C2=C(O)C3CCC(C3)C2=O)c1=O (stereo not shown) [Compound 240],"Plant response rating, Windgrass",[1]; [12],60
same,"Plant response rating, Windgrass",[1]; [19],98
same,"Plant response rating, Windgrass",[1]; [14],98
same,"Plant response rating, Windgrass",[1]; [20],80
same,"Plant response rating, Barley",[2]; [12],5
same,"Plant response rating, Barley",[2]; [19],15
same,"Plant response rating, Barley",[2]; [14],15
same,"Plant response rating, Barley",[2]; [20],5
same,"Plant response rating, Chickweed",[3]; [12],90
same,"Plant response rating, Chickweed",[3]; [19],100
same,"Plant response rating, Chickweed",[3]; [14],100
same,"Plant response rating, Chickweed",[3]; [20],98
same,"Plant response rating, Canarygrass",[4]; [12],5
same,"Plant response rating, Canarygrass",[4]; [19],30
same,"Plant response rating, Canarygrass",[4]; [14],40
same,"Plant response rating, Canarygrass",[4]; [20],5
same,"Plant response rating, Ragweed",[5]; [12],98
same,"Plant response rating, Ragweed",[5]; [19],100
same,"Plant response rating, Ragweed",[5]; [14],100
same,"Plant response rating, Ragweed",[5]; [20],98
same,"Plant response rating, Ryegrass, Italian",[6]; [12],10
same,"Plant response rating, Ryegrass, Italian",[6]; [19],40
same,"Plant response rating, Ryegrass, Italian",[6]; [14],40
same,"Plant response rating, Ryegrass, Italian",[6]; [20],15
same,"Plant response rating, Foxtail, Giant",[7]; [12],100
same,"Plant response rating, Foxtail, Giant",[7]; [19],100
same,"Plant response rating, Foxtail, Giant",[7]; [14],100
same,"Plant response rating, Foxtail, Giant",[7]; [20],100
O=C1CCCC(O)=C1C(=O)c1cnc(C2CC2)n(C2CCCCC2)c1=O [Compound 160],"Plant response rating, Windgrass",[1]; [12],20
same,"Plant response rating, Windgrass",[1]; [13],60
same,"Plant response rating, Windgrass",[1]; [14],80
same,Barley plant response rating (0 to 100 scale),"[2]; 62 g ai/ha, 13 to 15 days",30
same,"Plant response rating, Barley",[2]; [12],5
same,"Plant response rating, Barley",[2]; [13],35
same,"Plant response rating, Barley",[2]; [14],50
same,"Plant response rating, Chickweed",[3]; [12],85
same,"Plant response rating, Chickweed",[3]; [13],95
same,"Plant response rating, Chickweed",[3]; [14],100
same,"Plant response rating, Canarygrass",[4]; [12],5
same,"Plant response rating, Canarygrass",[4]; [13],20
same,"Plant response rating, Canarygrass",[4]; [14],35
same,"Plant response rating, Ragweed",[5]; [12],80
same,"Plant response rating, Ragweed",[5]; [13],98
same,"Plant response rating, Ragweed",[5]; [14],98
same,"Plant response rating, Ryegrass, Italian",[6]; [12],0
same,"Plant response rating, Ryegrass, Italian",[6]; [13],35
same,"Plant response rating, Ryegrass, Italian",[6]; [14],35
same,"Plant response rating, Foxtail, Giant",[7]; [12],70
same,"Plant response rating, Foxtail, Giant",[7]; [13],75
same,"Plant response rating, Foxtail, Giant",[7]; [14],85
